In patent US6608043B1, “Remedies for joint diseases” (Takata Seiyaku Co., Ltd., priority 1999, dated 2003):

Legend:
[1] = tested on: matrix metalloproteinase MMP-9; test: Suppression of MMP-9 in synovial cell culture supernatant (EIA); assay type: cell-based, human; settings: for production of MMP-9 relative to control (non-drug addition = 100%): culture supernatant day 8, HA/Zn and Na-HA 100 μg/ml, Zn 10 μg/ml, divided by MTT absorbance
Experimental: Synovial cells were inoculated into culture dishes (diameter: 35 mm, Iwaki) to a concentration of 10×10^4 cells/2 ml/dish (1×10^4 cells/cm^2), and pre-cultured for 2 days at 37° C. in a vapor phase consisting of 5% CO2 and 95% air. Later, the media were replaced with media containing each drug, and the culture supernatants were sampled on day 8 of culturing under the same conditions followed by storage at −80° C. until measurement. The added concentrations of HA/Zn and Na-HA were 100 μg/ml (final concentration), while the concentration of Zn was 10 μg/ml (final concentration). The amount of matrix metalloproteinase MMP-9 in the supernatant was measured using EIA (Enzyme Immunoassay). In order to examine the results calculated as concentration in the supernatant per cell, the results were converted to values divided by the optical absorbance value of synovial cells by MTT at that time. In addition, this value was further expressed as a relative value to the control of the individual value of each drug addition group while assigning the control (non-drug addition group) a value of 100%.

[2] = tested on: synovial cells (TASC) from traumatic arthritis (TA) patients; test: Synovial cell proliferation inhibition (MTT method), TASC; assay type: cell-based, human; settings: MTT on days 4, 8 and 12, HA/Zn and Na-HA 10-300 μg/ml, Zn at 1/10 of these, vs non-drug addition group
Experimental: (§1) The effects of the complex of hyaluronic acid and zinc (HA/Zn) of the present invention, and the effects of sodium hyaluronate (Na-HA) and zinc (Zn) as comparison controls were tested on synovial cells (RASC) from rheumatoid arthritis (RA) patients, synovial cells (OASC) from osteoarthritis (OA) patients, and synovial cells (TASC) from traumatic arthritis (TA) patients.
(§2) The test substances used consisted of HA/Zn (Lot No. A65242, 1% solution, Gedeon-Richter, Ltd.), sodium hyaluronate (Na-HA, Lot No. KK4001, Q.P. Corp.), and zinc chloride (Zn, Lot No. ESH1413, Wako Pure Chemical Ind., Ltd.). Quantitative values of the contents of hyaluronic acid and zinc contained in the above-mentioned HA/Zn solution (specific gravity; d^2020=1.0134) were determined in advance. Since the amount of hyaluronic acid was 99% (105.0% when calculated as sodium hyaluronate) and the amount of zinc was 1.07 mg/ml when the above-mentioned 1% is assigned a value of 100, the weight ratio of hyaluronic acid to zinc in said HA/Zn was considered to be 10:1 (Na-HA:Zn). The test substances were tested at concentrations of 10 μg/ml, 30 μg/ml, 100 μg/ml, 150 μg/ml, 200 μg/ml, 250 μg/ml and 300 μg/ml for HA/Zn, the same concentrations as HA/Zn for Na-HA, and at 1/10 the concentrations of HA/Zn for Zn.
(§3) Synovial membrane tissue was sampled from the knee joint of rheumatoid arthritis (RA) patients (5 cases, 65.6±10.6 years old) and osteoarthritis (OA) patients (6 cases, 73.4±8.9 years old) during artificial joint replacement surgery, and from the knee joint of traumatic arthritis (TA) patients (6 cases, 25.6±6.7 years old) during arthroscopic surgery. […]
(§4) The synovial cells (SC) were inoculated into a microplate (96 wells, Iwaki) at a concentration of 3.55×10^3 cells/0.1 ml/well (1×10^4 cells/cm^2), and pre-cultured for 2 days at 37° C. in a vapor phase consisting of 5% CO2 and 95% air. […] The results were expressed with the optical absorbance that indicated a positive correlation with the number of cells. […]

[3] = tested on: synovial cells (OASC) from osteoarthritis (OA) patients; test: Synovial cell proliferation inhibition (MTT method), OASC; assay type: cell-based, human; settings: MTT on days 4, 8 and 12, HA/Zn and Na-HA 10-300 μg/ml, Zn at 1/10 of these, vs non-drug addition group
Experimental: as §1, §2, §3, §4

[4] = tested on: synovial cells (RASC) from rheumatoid arthritis (RA) patients; test: Synovial cell proliferation inhibition (MTT method), RASC; assay type: cell-based, human; settings: MTT on days 4, 8 and 12, HA/Zn and Na-HA 10-300 μg/ml, Zn at 1/10 of these, vs non-drug addition group
Experimental: as §1, §2, §3, §4

[5] = Systemic toxicity after subcutaneous administration, mice; assay type: in vivo; settings: physically allowed maximum dose 200 mg/kg
Experimental: (§5) Administration methods normally performed for pharmaceuticals can be used for the hyaluronic acid/zinc complex of the present invention. Namely, the above-mentioned complex can be administered orally or parenterally, and administration by injection is particularly preferable. The effective dose of the hyaluronic acid/zinc complex of the present invention is 0.01 mg to 1 mg, and preferably 0.03 mg to 0.5 mg per joint per administration per person. […] The agent for treatment of arthritic disease and matrix metalloproteinase MMP-9 suppresser of the present invention can contain 0.001% to 1%, and preferably 0.01% to 0.5%, of the hyaluronic acid/zinc complex of the present invention with a routinely used pharmaceutical carrier. Examples of routinely used pharmaceutical carriers include bases typically used in therapeutic applications such as chitosan, starch, pectin, HPMC and sodium alginate, binders such as tragacanth gum, gum arabic, cornstarch and gelatin, vehicles such as crystalline cellulose and mannitol, disintegrating agents such as cornstarch, α-starch and alginic acid, lubricants such as magnesium stearate, sweeteners such as sucrose, lactose and saccharin, flavorings such as peppermint, mint and cherry, and antiseptics.

[6] = Systemic toxicity after subcutaneous administration, rats; assay type: in vivo; settings: physically allowed maximum dose 200 mg/kg
Experimental: as §5

| Molecule | production of MMP-9 relative to control (non-drug addition = 100%) [1] [%] | proliferation of synovial cells (inhibition) [2] | proliferation of synovial cells (inhibition) [3] | proliferation of synovial cells (inhibition) [4] | symptoms of systemic toxicity [5] | concentration at which MMP-9 is suppressed ([1]; synovial cells originating in rheumatoid arthritis, in vitro) [µg/mL] | symptoms of systemic toxicity [6] |
| --- | --- | --- | --- | --- | --- | --- | --- |
| sodium hyaluronate [Na-HA] | 100 | not significantly inhibited | not significantly inhibited | not significantly inhibited | – | – | – |
| complex of hyaluronic acid and zinc [HA/Zn] | 0 | significantly inhibited dependent on the amount added | significantly inhibited dependent on the amount added | significantly inhibited dependent on the amount added | not observed to cause symptoms of systemic toxicity | ≤ 100 | not observed to cause symptoms of systemic toxicity |
| [Cl-].[Cl-].[Zn+2] [Zn, zinc chloride] | 50 | significant inhibition | significant inhibition | significant inhibition | – | – | – |
